In ChEMBL document CHEMBL1201862, “PubChem BioAssay data set” (2004):
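48-hour exposure; five concentrations; linearly interpolated endpoints. The concentration for 50% growth inhibition is given as GI50.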 Activity calls are given as the source filed them. Rule as the data show it: active = GI50 up to about 1.1 µM and inactive = higher.

Key:
Experiment in all cases: NCI anticancer screen, dose series, 48 h
786-0 = system: 786-0
COLO 205 = system: COLO 205
HCT-15 = system: HCT-15
HOP-62 = system: HOP-62
HOP-92 = system: HOP-92
IGROV-1 = system: IGROV-1
LOX IMVI = system: LOX IMVI
MDA-MB-231 = system: MDA-MB-231
MDA-N = system: MDA-N
OVCAR-4 = system: OVCAR-4
PC-3 = system: PC-3
SK-OV-3 = system: SK-OV-3
SR = system: SR
CCRF-CEM = system: CCRF-CEM
OVCAR-3 = system: OVCAR-3
RXF 393 = system: RXF 393
A498 = system: A498
HCC 2998 = system: HCC 2998

SMILES | GI50 (786-0) | GI50 (COLO 205) | GI50 (HCT-15) [µM] | GI50 (HOP-62) | GI50 (HOP-92) | GI50 (IGROV-1) | GI50 (LOX IMVI) | GI50 (MDA-MB-231) | GI50 (MDA-N) | GI50 (OVCAR-4) | GI50 (PC-3) | GI50 (SK-OV-3) | GI50 (SR) | GI50 (CCRF-CEM) | GI50 (OVCAR-3) | GI50 (RXF 393) | GI50 (A498) | GI50 (HCC 2998)
O=C(OC1C(Oc2ccccc2COC(=O)C2(O)C=CCCC2=O)OC(CO)C(O)C1O)c1ccccc1 (stereo not given) | 25.3 µM (inactive) | 23.3 µM (inactive) | 28.2 | 42 µM (inactive) | 0.094 µM (active) | 25.6 µM (inactive) | 23.6 µM (inactive) | 35.5 µM (inactive) | 27 µM (inactive) | 41.2 µM (inactive) | 28.4 µM (inactive) | 33.9 µM (inactive) | 19.4 µM (inactive) | – | – | – | – | –
CC(C)(C)c1cc(CCC(=O)Nc2ccc(Cl)cc2)nc(NC#N)n1 | > 100 µM (inactive) | > 100 µM (inactive) | > 100 | > 100 µM (inactive) | 91 µM (inactive) | > 100 µM (inactive) | > 100 µM (inactive) | – | – | > 100 µM (inactive) | – | > 100 µM (inactive) | – | > 100 µM (inactive) | > 100 µM (inactive) | – | – | –
NNc1ncc2c(n1)-c1ccccc1OC2 | 64.3 µM (inactive) | 59.3 µM (inactive) | 29.9 | 35.6 µM (inactive) | 24.7 µM (inactive) | 31 µM (inactive) | 58.9 µM (inactive) | > 100 µM (inactive) | > 100 µM (inactive) | 67.1 µM (inactive) | 47.2 µM (inactive) | 57.1 µM (inactive) | 27.8 µM (inactive) | 17.3 µM (inactive) | 22.2 µM (inactive) | > 100 µM (inactive) | – | –
O=c1[c-](-c2ccccc2)[se]c(-c2ccccc2)[n+]1-c1ccccc1 | 10.5 µM (inactive) | 15.5 µM (inactive) | 13.2 | – | 18.6 µM (inactive) | 3.71 µM (inactive) | 13.3 µM (inactive) | – | – | 2.35 µM (inactive) | – | 24.2 µM (inactive) | – | 3.87 µM (inactive) | 10 µM (inactive) | 3.18 µM (inactive) | 10 µM (inactive) | 6.35 µM (inactive)
Nc1ncnc2c1ncn2C1OC(CO)C2OC21 (stereo not given) | > 10 µM (inactive) | > 100 µM (inactive) | > 10 | > 100 µM (inactive) | > 100 µM (inactive) | > 100 µM (inactive) | > 100 µM (inactive) | > 100 µM (inactive) | > 10 µM (inactive) | > 100 µM (inactive) | > 100 µM (inactive) | > 100 µM (inactive) | > 100 µM (inactive) | > 100 µM (inactive) | > 10 µM (inactive) | > 100 µM (inactive) | > 100 µM (inactive) | > 100 µM (inactive)
COC(=O)/C(C)=N/N=C(\S)SC | 35.9 µM (inactive) | – | 36.7 | > 100 µM (inactive) | > 100 µM (inactive) | 47.5 µM (inactive) | 37.2 µM (inactive) | 46.6 µM (inactive) | 77.1 µM (inactive) | 46.3 µM (inactive) | 36.5 µM (inactive) | > 100 µM (inactive) | 49.7 µM (inactive) | 0.0428 µM (active) | 24.8 µM (inactive) | 16.7 µM (inactive) | > 100 µM (inactive) | 40.6 µM (inactive)
CCCN(CCC)C(=O)c1c(Cl)c2cccnc2n2c(C)cnc12 | > 100 µM (inactive) | 49.5 µM (inactive) | – | > 100 µM (inactive) | 73.3 µM (inactive) | 64.4 µM (inactive) | > 100 µM (inactive) | 31.8 µM (inactive) | 23.6 µM (inactive) | > 100 µM (inactive) | 23.9 µM (inactive) | 58.9 µM (inactive) | 32.9 µM (inactive) | 51.8 µM (inactive) | 47.9 µM (inactive) | 35 µM (inactive) | 69.5 µM (inactive) | 97.9 µM (inactive)
CC1(C)CC[C@]2(C(=O)O)CC[C@]3(C)C(=CC[C@@H]4[C@@]5(C)C[C@H](O)[C@H](O)[C@@](C)(CO)C5=CC[C@]43C)[C@@H]2C1 | 55.2 µM (inactive) | 22.5 µM (inactive) | 40.7 | > 100 µM (inactive) | > 100 µM (inactive) | 31.1 µM (inactive) | 71.3 µM (inactive) | > 100 µM (inactive) | > 100 µM (inactive) | 31.4 µM (inactive) | 67.9 µM (inactive) | > 100 µM (inactive) | > 100 µM (inactive) | > 100 µM (inactive) | > 100 µM (inactive) | – | > 100 µM (inactive) | 35.4 µM (inactive)
COC(=O)Cc1cc(OC)c(OC)cc1Br | > 100 µM (inactive) | > 100 µM (inactive) | – | > 100 µM (inactive) | > 100 µM (inactive) | – | – | – | – | > 100 µM (inactive) | – | > 100 µM (inactive) | > 100 µM (inactive) | > 100 µM (inactive) | > 100 µM (inactive) | – | > 100 µM (inactive) | > 100 µM (inactive)
CC(C)N(C(=O)C12C3C4C1C1C2C3C41C(=O)O)C(C)C (stereo not given) | > 100 µM (inactive) | > 100 µM (inactive) | > 100 | > 100 µM (inactive) | – | > 100 µM (inactive) | > 100 µM (inactive) | – | – | > 100 µM (inactive) | – | > 100 µM (inactive) | – | > 100 µM (inactive) | > 100 µM (inactive) | – | > 100 µM (inactive) | > 100 µM (inactive)
COCC(/N=C\N1CCCc2ccccc2[C@@H]1CCCCl)C(C)(C)C (stereo not given in full) | 7.96 µM (inactive) | 0.586 µM (active) | 41.9 | 15.3 µM (inactive) | 7.19 µM (inactive) | 0.353 µM (active) | 8.41 µM (inactive) | 3.49 µM (inactive) | 33.8 µM (inactive) | 1.97 µM (inactive) | 0.482 µM (active) | 14.6 µM (inactive) | 2.05 µM (inactive) | 0.444 µM (active) | 0.209 µM (active) | 13.1 µM (inactive) | 13.2 µM (inactive) | 13.3 µM (inactive)
C[N+](C)(C)CC(=O)N/N=C/c1oc(-c2cccc([N+](=O)[O-])c2)c(-c2cccc([N+](=O)[O-])c2)c1[N+](=O)[O-] | 48.1 µM (inactive) | > 100 µM (inactive) | – | > 100 µM (inactive) | > 100 µM (inactive) | 95.5 µM (inactive) | – | – | – | > 100 µM (inactive) | – | > 100 µM (inactive) | 40.1 µM (inactive) | 35.2 µM (inactive) | – | 76.9 µM (inactive) | > 100 µM (inactive) | > 100 µM (inactive)
O=C1CCC2(CC1CC[S+]([O-])c1ccccc1)OCCO2 (stereo not given) | > 100 µM (inactive) | > 100 µM (inactive) | > 100 | > 100 µM (inactive) | > 100 µM (inactive) | > 100 µM (inactive) | > 100 µM (inactive) | > 100 µM (inactive) | > 100 µM (inactive) | > 100 µM (inactive) | > 100 µM (inactive) | > 100 µM (inactive) | > 100 µM (inactive) | > 100 µM (inactive) | > 100 µM (inactive) | > 100 µM (inactive) | > 100 µM (inactive) | > 100 µM (inactive)
CC(=O)N(CN1C(=O)CCC1C(=O)O)c1cccc(O)c1 (stereo not given) | > 100 µM (inactive) | > 100 µM (inactive) | > 100 | > 100 µM (inactive) | > 100 µM (inactive) | > 100 µM (inactive) | > 100 µM (inactive) | > 100 µM (inactive) | > 100 µM (inactive) | > 100 µM (inactive) | > 100 µM (inactive) | > 100 µM (inactive) | – | > 100 µM (inactive) | > 100 µM (inactive) | – | > 100 µM (inactive) | > 100 µM (inactive)
CC(C)(C)C(=O)CC(=O)C(F)(F)C(F)(F)C(F)(F)F | 17 µM (inactive) | 19 µM (inactive) | 14.3 | 18.3 µM (inactive) | 14.7 µM (inactive) | 11.9 µM (inactive) | 0.362 µM (active) | 15.5 µM (inactive) | 15.4 µM (inactive) | 13.2 µM (inactive) | 13.6 µM (inactive) | 20.9 µM (inactive) | 5.06 µM (inactive) | 16.3 µM (inactive) | 14.1 µM (inactive) | 17.3 µM (inactive) | – | –
CC(=O)Nc1ccc(-c2nnc(SCC(=O)Nc3ccccc3Cl)o2)cc1 | > 100 µM (inactive) | > 100 µM (inactive) | > 100 | > 100 µM (inactive) | – | > 100 µM (inactive) | > 100 µM (inactive) | – | – | > 100 µM (inactive) | – | > 100 µM (inactive) | – | > 100 µM (inactive) | 93.1 µM (inactive) | > 100 µM (inactive) | > 100 µM (inactive) | > 100 µM (inactive)
Cc1nnc(Nc2ccccc2)o1 | > 100 µM (inactive) | > 100 µM (inactive) | > 100 | – | – | – | > 100 µM (inactive) | – | > 100 µM (inactive) | > 100 µM (inactive) | > 100 µM (inactive) | > 100 µM (inactive) | > 100 µM (inactive) | > 100 µM (inactive) | > 100 µM (inactive) | > 100 µM (inactive) | – | –
CC(=O)Nc1ccc(Cl)c(Cl)c1 | > 100 µM (inactive) | > 100 µM (inactive) | > 100 | > 100 µM (inactive) | – | > 100 µM (inactive) | > 100 µM (inactive) | – | – | – | – | > 100 µM (inactive) | > 100 µM (inactive) | > 100 µM (inactive) | > 100 µM (inactive) | > 100 µM (inactive) | – | > 100 µM (inactive)
COc1c2c(cc3nc4ccccc4nc13)CC[C@H](NC(C)=O)c1cc(=O)c(SC)ccc1-2 | 0.506 µM (active) | 0.283 µM (active) | 2.84 | 11.9 µM (inactive) | 5.75 µM (inactive) | 0.236 µM (active) | 0.755 µM (active) | 2.96 µM (inactive) | 0.18 µM (active) | 4.27 µM (inactive) | 0.614 µM (active) | 5.28 µM (inactive) | 0.322 µM (active) | 0.532 µM (active) | 0.785 µM (active) | 2.74 µM (inactive) | 7.62 µM (inactive) | 1.25 µM (inactive)
